What was measured:
[1] = biological target: dopamine D2 receptors (Homo sapiens, UniProt P14416); experiment: [35S]GTPγS binding assay in transfected cells, dopamine D2 receptor; type: biochemical
[2] = system: adult male Wistar rats; experiment: Tail-flick test, acute pain model, single administration; type: in vivo; settings: i.t., 10 nmol/rat, mean ± SEM
[3] = system: adult male Wistar rats; experiment: Rotarod, evaluation of motor impairment; type: in vivo; settings: 10 nmol/rat i.t., 30 min after administration, cut-off 300 s, n = 6
[4] = system: adult male Wistar rats; experiment: Scratching and grooming behaviour; type: in vivo; settings: 10 nmol/rat i.t.
[5] = system: adult male Wistar rats

Chain of dopamine D2 receptors (P14416 whole entry): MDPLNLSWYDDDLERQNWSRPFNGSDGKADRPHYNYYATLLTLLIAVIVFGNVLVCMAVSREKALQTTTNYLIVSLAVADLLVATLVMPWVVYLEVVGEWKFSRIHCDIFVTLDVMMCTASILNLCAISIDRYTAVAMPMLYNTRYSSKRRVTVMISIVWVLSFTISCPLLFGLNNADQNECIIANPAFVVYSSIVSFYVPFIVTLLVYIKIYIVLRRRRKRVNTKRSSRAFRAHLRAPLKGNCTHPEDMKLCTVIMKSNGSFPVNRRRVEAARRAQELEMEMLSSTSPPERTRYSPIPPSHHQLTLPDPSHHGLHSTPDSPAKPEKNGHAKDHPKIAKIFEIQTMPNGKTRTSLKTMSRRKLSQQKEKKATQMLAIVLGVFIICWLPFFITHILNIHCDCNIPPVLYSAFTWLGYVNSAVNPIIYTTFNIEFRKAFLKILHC

Structure (SMILES)	Influence of domperidone on the [35S]GTPγS response ([1]; dopamine receptor antagonist domperidone present, unpublished data)	Emax ([1]; read-out: Emax, G protein activation at dopamine D2 receptor)	MPE (%), tail-flick test ([2]; 15 min post-administration)	MPE (%), tail-flick test ([2]; 30 min post-injection)	Latency to fall, Rotarod [3]	Additional behaviours (wet-dog shakes, teeth chattering) [4]	Scratching response ([4]; day 9, first 30 min post-injection)	Increase in the acute ED50 values after repeated treatment ([5]; i.t., tail-flick test)	ED50 value (nmol, i.t.), Day 1 ([5]; rat tail-flick, 30 min post-injection, Day 1, mean (CI 95%))	ED50 value (nmol, i.t.), Day 3 ([5]; rat tail-flick, repeated daily treatment, Day 3, mean (CI 95%))
NCCc1ccc(O)c(O)c1 [Dopamine]	considerably reduced in the presence of domperidone	141%	–	–	–	–	–	–	–	–
CN1CC[C@]23c4c5ccc(O)c4O[C@H]2[C@@H](O)C=C[C@H]3[C@H]1C5 [Morphine]	–	–	84.50 ± 3.84%	86.23 ± 4.76%	222.33 ± 8.44 s	wet-dog shakes and teeth chattering	strong scratch reflex in rats that weakened over time	3.2 fold	2.82 (2.33–3.41) nmol	9.03 (7.03–11.61) nmol

Source: publication PMC7488486 (Acta Pharmaceutica Sinica. B, 2020)
